From the supplement of paper PMC10307832

Tests used:
Assay in all cases: relative viability (nuclei count vs DMSO), 5 days (fraction); higher = more cells survive
AZD5582 = compound: C[C@@H](C(=O)N[C@@H](C1CCCCC1)C(=O)N2CCC[C@H]2C(=O)N[C@@H]3[C@@H](CC4=CC=CC=C34)OCC#CC#CCO[C@@H]5CC6=CC=CC=C6[C@@H]5NC(=O)[C@@H]7CCCN7C(=O)[C@H](C8CCCCC8)NC(=O)[C@H](C)NC)NC [AZD5582]
In short: (§1)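 MetaXpress counted nuclei in 4× images of lung cancer cell lines that had been fixed, permeabilised and Hoechst-stained in one step. Before that, cells in 1536-well plates were kept overnight at 37 °C, pinned with five √10-spaced library-drug doses on vehicle-anchored plates, and cultured 5 days without medium change. Viability takes treated-well nuclei over vehicle-well nuclei and uses the median across plates. Plates were accepted only at control CV below 25% and at least one doubling.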

Temozolomide = compound: Cn1nnc2c(C(N)=O)ncn2c1=O [Temozolomide]
In short: as §1

AZD5582 + Navitoclax = compound: C[C@@H](C(=O)N[C@@H](C1CCCCC1)C(=O)N2CCC[C@H]2C(=O)N[C@@H]3[C@@H](CC4=CC=CC=C34)OCC#CC#CCO[C@@H]5CC6=CC=CC=C6[C@@H]5NC(=O)[C@@H]7CCCN7C(=O)[C@H](C8CCCCC8)NC(=O)[C@H](C)NC)NC [AZD5582] + CC1(C)CCC(c2ccc(Cl)cc2)=C(CN2CCN(c3ccc(C(=O)NS(=O)(=O)c4ccc(N[C@H](CCN5CCOCC5)CSc5ccccc5)c(S(=O)(=O)C(F)(F)F)c4)cc3)CC2)C1 [Navitoclax] (partner 0.5 µM)
In short: (§2)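 The day after seeding in 1536-well plates, lung cancer cell lines were treated by pin tool with a single drug, or with a fixed anchor-drug dose together with five library-drug doses (not always all listed) in √10 steps. After 5 days, a combined fix-and-stain solution (final 0.05% Triton X-100, 1% formaldehyde, 1 ug/ml Hoechst) was added. Nuclei counted on 4× images gave relative viability as treated counts over vehicle counts, reported as the median of duplicate plates.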

AZD5582 + Foretinib = compound: C[C@@H](C(=O)N[C@@H](C1CCCCC1)C(=O)N2CCC[C@H]2C(=O)N[C@@H]3[C@@H](CC4=CC=CC=C34)OCC#CC#CCO[C@@H]5CC6=CC=CC=C6[C@@H]5NC(=O)[C@@H]7CCCN7C(=O)[C@H](C8CCCCC8)NC(=O)[C@H](C)NC)NC [AZD5582] + COc1cc2c(Oc3ccc(NC(=O)C4(C(=O)Nc5ccc(F)cc5)CC4)cc3F)ccnc2cc1OCCCN1CCOCC1 [Foretinib] (partner 0.25 µM)
In short: as §2

PC-3 [JPC-3] was tested. Which relative viability (AZD5582; 0.001581 µM) did it give?
The relative viability was 0.885.

What about the relative viability (AZD5582; 0.005 µM) of the same cell line?
Its relative viability is 0.898.

What about the relative viability (AZD5582; 0.01581 µM) of the same cell line?
Its relative viability is 0.9.

What about the relative viability (AZD5582; 0.05 µM) of the same cell line?
Its relative viability is 0.531.

And the relative viability (Temozolomide; 0.2 µM)?
Its relative viability is 0.954.

What about the relative viability (Temozolomide; 0.6325 µM) of the same cell line?
Its relative viability is 1.08.

And the relative viability (Temozolomide; 2 µM)?
Its relative viability is 1.09.

And the relative viability (Temozolomide; 6.325 µM)?
The relative viability was 1.06.

What about the relative viability (Temozolomide; 20 µM) of the same cell line?
Its relative viability is 0.451.

What about the relative viability (AZD5582 + Navitoclax; first compound 0.001581 µM) of the same cell line?
The relative viability was 0.752.

And the relative viability (AZD5582 + Navitoclax; first compound 0.005 µM)?
The relative viability was 0.727.

And the relative viability (AZD5582 + Navitoclax; first compound 0.01581 µM)?
Its relative viability is 0.664.

And the relative viability (AZD5582 + Navitoclax; first compound 0.05 µM)?
Its relative viability is 0.486.

What about the relative viability (AZD5582 + Foretinib; first compound 0.001581 µM) of the same cell line?
Its relative viability is 0.866.

And the relative viability (AZD5582 + Foretinib; first compound 0.005 µM)?
The relative viability was 0.809.

And the relative viability (AZD5582 + Foretinib; first compound 0.01581 µM)?
The relative viability was 0.96.

What about the relative viability (AZD5582 + Foretinib; first compound 0.05 µM) of the same cell line?
Its relative viability is 0.488.

How did the relative viability (AZD5582; 0.001581 µM) turn out when PC-14 was run?
Its relative viability is 0.859.

What about the relative viability (AZD5582; 0.005 µM) of the same cell line?
Its relative viability is 1.03.

And the relative viability (AZD5582; 0.01581 µM)?
The relative viability was 0.926.

And the relative viability (AZD5582; 0.05 µM)?
The relative viability was 0.932.

And the relative viability (Temozolomide; 0.2 µM)?
The relative viability was 1.07.

What about the relative viability (Temozolomide; 0.6325 µM) of the same cell line?
Its relative viability is 1.03.

And the relative viability (Temozolomide; 2 µM)?
The relative viability was 0.994.

What about the relative viability (Temozolomide; 6.325 µM) of the same cell line?
Its relative viability is 0.944.

What about the relative viability (Temozolomide; 20 µM) of the same cell line?
The relative viability was 0.529.

And the relative viability (AZD5582 + Navitoclax; first compound 0.001581 µM)?
The relative viability was 1.06.

And the relative viability (AZD5582 + Navitoclax; first compound 0.005 µM)?
The relative viability was 0.967.

And the relative viability (AZD5582 + Navitoclax; first compound 0.01581 µM)?
Its relative viability is 0.969.

What about the relative viability (AZD5582 + Navitoclax; first compound 0.05 µM) of the same cell line?
Its relative viability is 1.11.

What about the relative viability (AZD5582 + Foretinib; first compound 0.001581 µM) of the same cell line?
The relative viability was 0.903.

What about the relative viability (AZD5582 + Foretinib; first compound 0.005 µM) of the same cell line?
Its relative viability is 1.06.

What about the relative viability (AZD5582 + Foretinib; first compound 0.01581 µM) of the same cell line?
The relative viability was 0.938.

What about the relative viability (AZD5582 + Foretinib; first compound 0.05 µM) of the same cell line?
The relative viability was 0.945.

What does the source list for RERF-LC-KJ?
relative viability (AZD5582; 0.001581 µM): 0.715; relative viability (AZD5582; 0.005 µM): 0.668; relative viability (AZD5582; 0.01581 µM): 0.912; relative viability (AZD5582; 0.05 µM): 0.802; relative viability (Temozolomide; 0.2 µM): 0.982; relative viability (Temozolomide; 0.6325 µM): 1; relative viability (Temozolomide; 2 µM): 1.04; relative viability (Temozolomide; 6.325 µM): 0.978; relative viability (Temozolomide; 20 µM): 1.01; relative viability (AZD5582 + Navitoclax; first compound 0.001581 µM): 0.375; relative viability (AZD5582 + Navitoclax; first compound 0.01581 µM): 0.825; relative viability (AZD5582 + Navitoclax; first compound 0.05 µM): 0.295; relative viability (AZD5582 + Foretinib; first compound 0.001581 µM): 0.758; relative viability (AZD5582 + Foretinib; first compound 0.005 µM): 0.836; relative viability (AZD5582 + Foretinib; first compound 0.01581 µM): 0.855; relative viability (AZD5582 + Foretinib; first compound 0.05 µM): 0.924

Which results are given for SK-LU-1?
relative viability (AZD5582; 0.001581 µM): 0.888; relative viability (AZD5582; 0.005 µM): 0.777; relative viability (AZD5582; 0.01581 µM): 0.939; relative viability (AZD5582; 0.05 µM): 0.47; relative viability (Temozolomide; 0.2 µM): 1.09; relative viability (Temozolomide; 0.6325 µM): 1.03; relative viability (Temozolomide; 2 µM): 0.899; relative viability (Temozolomide; 6.325 µM): 0.554; relative viability (Temozolomide; 20 µM): 0.467; relative viability (AZD5582 + Navitoclax; first compound 0.001581 µM): 0.462; relative viability (AZD5582 + Navitoclax; first compound 0.005 µM): 0.471; relative viability (AZD5582 + Navitoclax; first compound 0.01581 µM): 0.819; relative viability (AZD5582 + Navitoclax; first compound 0.05 µM): 0.351; relative viability (AZD5582 + Foretinib; first compound 0.001581 µM): 0.794; relative viability (AZD5582 + Foretinib; first compound 0.005 µM): 0.772; relative viability (AZD5582 + Foretinib; first compound 0.01581 µM): 0.843; relative viability (AZD5582 + Foretinib; first compound 0.05 µM): 0.472

SK-MES-1 was tested. Which relative viability (AZD5582; 0.001581 µM) did it give?
Its relative viability is 0.943.

And the relative viability (AZD5582; 0.005 µM)?
Its relative viability is 1.15.

And the relative viability (AZD5582; 0.01581 µM)?
Its relative viability is 0.972.

And the relative viability (AZD5582; 0.05 µM)?
Its relative viability is 1.09.

And the relative viability (Temozolomide; 0.2 µM)?
The relative viability was 1.13.

And the relative viability (Temozolomide; 0.6325 µM)?
Its relative viability is 1.02.

What about the relative viability (Temozolomide; 2 µM) of the same cell line?
The relative viability was 1.06.

What about the relative viability (Temozolomide; 6.325 µM) of the same cell line?
The relative viability was 1.05.

What about the relative viability (Temozolomide; 20 µM) of the same cell line?
The relative viability was 0.889.

What about the relative viability (AZD5582 + Navitoclax; first compound 0.001581 µM) of the same cell line?
Its relative viability is 1.22.

What about the relative viability (AZD5582 + Navitoclax; first compound 0.005 µM) of the same cell line?
The relative viability was 1.3.

What about the relative viability (AZD5582 + Navitoclax; first compound 0.01581 µM) of the same cell line?
The relative viability was 1.25.

And the relative viability (AZD5582 + Navitoclax; first compound 0.05 µM)?
The relative viability was 1.15.

What about the relative viability (AZD5582 + Foretinib; first compound 0.001581 µM) of the same cell line?
The relative viability was 0.878.

What about the relative viability (AZD5582 + Foretinib; first compound 0.005 µM) of the same cell line?
Its relative viability is 1.29.

What about the relative viability (AZD5582 + Foretinib; first compound 0.01581 µM) of the same cell line?
Its relative viability is 0.967.

What about the relative viability (AZD5582 + Foretinib; first compound 0.05 µM) of the same cell line?
Its relative viability is 1.24.

Which results are given for SW 1573?
relative viability (AZD5582; 0.001581 µM): 0.939; relative viability (AZD5582; 0.005 µM): 1.04; relative viability (AZD5582; 0.01581 µM): 1.03; relative viability (AZD5582; 0.05 µM): 1.13; relative viability (Temozolomide; 0.2 µM): 0.998; relative viability (Temozolomide; 0.6325 µM): 0.992; relative viability (Temozolomide; 2 µM): 1.07; relative viability (Temozolomide; 6.325 µM): 0.948; relative viability (Temozolomide; 20 µM): 0.971; relative viability (AZD5582 + Navitoclax; first compound 0.001581 µM): 0.848; relative viability (AZD5582 + Navitoclax; first compound 0.005 µM): 0.926; relative viability (AZD5582 + Navitoclax; first compound 0.01581 µM): 0.82; relative viability (AZD5582 + Navitoclax; first compound 0.05 µM): 1.32; relative viability (AZD5582 + Foretinib; first compound 0.001581 µM): 0.736; relative viability (AZD5582 + Foretinib; first compound 0.005 µM): 1; relative viability (AZD5582 + Foretinib; first compound 0.01581 µM): 0.885; relative viability (AZD5582 + Foretinib; first compound 0.05 µM): 0.853

What does the source list for UMC-11?
relative viability (AZD5582; 0.001581 µM): 0.887; relative viability (AZD5582; 0.005 µM): 1.01; relative viability (AZD5582; 0.01581 µM): 0.96; relative viability (AZD5582; 0.05 µM): 1.03; relative viability (Temozolomide; 0.2 µM): 0.994; relative viability (Temozolomide; 0.6325 µM): 1.06; relative viability (Temozolomide; 2 µM): 1.05; relative viability (Temozolomide; 6.325 µM): 0.858; relative viability (Temozolomide; 20 µM): 0.677; relative viability (AZD5582 + Navitoclax; first compound 0.001581 µM): 0.333; relative viability (AZD5582 + Navitoclax; first compound 0.005 µM): 0.299; relative viability (AZD5582 + Navitoclax; first compound 0.01581 µM): 0.335; relative viability (AZD5582 + Navitoclax; first compound 0.05 µM): 0.321; relative viability (AZD5582 + Foretinib; first compound 0.001581 µM): 0.995; relative viability (AZD5582 + Foretinib; first compound 0.005 µM): 1.12; relative viability (AZD5582 + Foretinib; first compound 0.01581 µM): 1.03; relative viability (AZD5582 + Foretinib; first compound 0.05 µM): 1.05
